Test results from the supplement of paper PMC8671470.

Tested on: myeloid leukemia patient primary cells Pat.14
Assay: cell viability (% survival relative to DMSO control); higher = less cytotoxic
Details: 1000 nM; 72 h
How it was run: (§1)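 Thawed mononuclear cells from AML or CML patients were purified on Ficoll and cultured for 72 h in RPMI 1640 with 10% FBS, at 10,000 cells/well, on 384-well plates carrying 70 pre-printed compounds at 1–10,000 nM in five tenfold steps, in duplicate. Viability came from CellTiter-Glo, normalised against DMSO and against 10 μM proteasome inhibitor. Any area under the curve given was derived from log-logistic curve fits in the drc and PharmacoGx R packages, and these fits had four parameters.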

In order of falling cell viability:
1. Oc1ncc(F)c(O)n1 [5-fluorouracil]  90.2%
2. CN(C)CCNC(=O)c1cccn2c(=O)c3cc4ccccc4cc3nc12 [Bmh-21]  42.8%

Same assay, conditions: 10000 nM; 72 h

In order of falling cell viability:
1. O=C(c1c2ccccc2cc2ccccc12)N1CCC(N2CCC[C@@H](C(=O)N3CCOCC3)C2)CC1  94.4%
2. Oc1ncc(F)c(O)n1 [5-fluorouracil]  84.9%
3. CCC(CC#N)OC(=O)N[C@@H](C)c1cccc(NC(=O)Nc2ccc(-c3cnco3)c(OC)c2)c1 (stereo in doubt) [AVN-944]  34.3%
4. c1ccc2c(c1)SCc1c-2[nH]c2ccccc12  6.72%
5. CN(C)CCNC(=O)c1cccn2c(=O)c3cc4ccccc4cc3nc12 [Bmh-21]  3.08%

Tested on: myeloid leukemia patient primary cells Pat.8
Assay: as above
Details: 1 nM; 72 h
How it was run: as §1

In order of falling cell viability:
1. c1ccc2c(c1)SCc1c-2[nH]c2ccccc12  92.5%
2. O=C(c1c2ccccc2cc2ccccc12)N1CCC(N2CCC[C@@H](C(=O)N3CCOCC3)C2)CC1  87.7%
3. Oc1ncc(F)c(O)n1 [5-fluorouracil]  85.8%
4. CCC(CC#N)OC(=O)N[C@@H](C)c1cccc(NC(=O)Nc2ccc(-c3cnco3)c(OC)c2)c1 (stereo in doubt) [AVN-944]  82.5%
5. CN(C)CCNC(=O)c1cccn2c(=O)c3cc4ccccc4cc3nc12 [Bmh-21]  81.8%

Same assay, conditions: 10 nM; 72 h

First: O=C(c1c2ccccc2cc2ccccc12)N1CCC(N2CCC[C@@H](C(=O)N3CCOCC3)C2)CC1
Second: CN(C)CCNC(=O)c1cccn2c(=O)c3cc4ccccc4cc3nc12 [Bmh-21]
The cell viability of the first is higher: over 100% for the first, 74.6% for the second.

Going from `c1ccc2c(c1)SCc1c-2[nH]c2ccccc12` to `CCC(CC#N)OC(=O)N[C@@H](C)c1cccc(NC(=O)Nc2ccc(-c3cnco3)c(OC)c2)c1` (stereo in doubt) [AVN-944], the cell viability rises from 67.3% to 92.3%.

In the case of `Oc1ncc(F)c(O)n1` [5-fluorouracil], the cell viability was 86.3%.

Same assay, conditions: 100 nM; 72 h

In order of falling cell viability:
1. Oc1ncc(F)c(O)n1 [5-fluorouracil]  94.5%
2. O=C(c1c2ccccc2cc2ccccc12)N1CCC(N2CCC[C@@H](C(=O)N3CCOCC3)C2)CC1  93.3%
3. CCC(CC#N)OC(=O)N[C@@H](C)c1cccc(NC(=O)Nc2ccc(-c3cnco3)c(OC)c2)c1 (stereo in doubt) [AVN-944]  86.4%
4. CN(C)CCNC(=O)c1cccn2c(=O)c3cc4ccccc4cc3nc12 [Bmh-21]  79.8%
5. c1ccc2c(c1)SCc1c-2[nH]c2ccccc12  69.9%

Same assay, conditions: 1000 nM; 72 h

In order of falling cell viability:
1. CN(C)CCNC(=O)c1cccn2c(=O)c3cc4ccccc4cc3nc12 [Bmh-21]  88.3%
2. Oc1ncc(F)c(O)n1 [5-fluorouracil]  80.1%
3. c1ccc2c(c1)SCc1c-2[nH]c2ccccc12  75.9%
4. O=C(c1c2ccccc2cc2ccccc12)N1CCC(N2CCC[C@@H](C(=O)N3CCOCC3)C2)CC1  69.3%
5. CCC(CC#N)OC(=O)N[C@@H](C)c1cccc(NC(=O)Nc2ccc(-c3cnco3)c(OC)c2)c1 (stereo in doubt) [AVN-944]  68.7%

Same assay, conditions: 10000 nM; 72 h

First: O=C(c1c2ccccc2cc2ccccc12)N1CCC(N2CCC[C@@H](C(=O)N3CCOCC3)C2)CC1
Second: CN(C)CCNC(=O)c1cccn2c(=O)c3cc4ccccc4cc3nc12 [Bmh-21]
The cell viability of the first is higher: 87.5% for the first, under 0% for the second.

Going from `c1ccc2c(c1)SCc1c-2[nH]c2ccccc12` to `CCC(CC#N)OC(=O)N[C@@H](C)c1cccc(NC(=O)Nc2ccc(-c3cnco3)c(OC)c2)c1` (stereo in doubt) [AVN-944], the cell viability rises from 0.503% to 58.1%.

For `Oc1ncc(F)c(O)n1` [5-fluorouracil], the cell viability was 98.7%.

Tested on: myeloid leukemia patient primary cells Pat.11
Assay: as above
Details: 1 nM; 72 h
How it was run: as §1

First: O=C(c1c2ccccc2cc2ccccc12)N1CCC(N2CCC[C@@H](C(=O)N3CCOCC3)C2)CC1
Second: CN(C)CCNC(=O)c1cccn2c(=O)c3cc4ccccc4cc3nc12 [Bmh-21]
The cell viability of the first is lower: 99.3% for the first, over 100% for the second.

`c1ccc2c(c1)SCc1c-2[nH]c2ccccc12` and `CCC(CC#N)OC(=O)N[C@@H](C)c1cccc(NC(=O)Nc2ccc(-c3cnco3)c(OC)c2)c1` (stereo in doubt) [AVN-944] cannot be ordered by cell viability: over 100% for the first, over 100% for the second.

With `Oc1ncc(F)c(O)n1` [5-fluorouracil] the cell viability was 99.9%.

Same assay, conditions: 10 nM; 72 h

Compared with `O=C(c1c2ccccc2cc2ccccc12)N1CCC(N2CCC[C@@H](C(=O)N3CCOCC3)C2)CC1`, `CN(C)CCNC(=O)c1cccn2c(=O)c3cc4ccccc4cc3nc12` [Bmh-21] is lower in cell viability: over 100% for the first, 97.6% for the second.

First: c1ccc2c(c1)SCc1c-2[nH]c2ccccc12
Second: CCC(CC#N)OC(=O)N[C@@H](C)c1cccc(NC(=O)Nc2ccc(-c3cnco3)c(OC)c2)c1 (stereo in doubt) [AVN-944]
The cell viability of the first is lower: 94.7% for the first, 99.4% for the second.

Work on `Oc1ncc(F)c(O)n1` [5-fluorouracil] yielded a cell viability of 97.2%.

Same assay, conditions: 100 nM; 72 h

Compared with `O=C(c1c2ccccc2cc2ccccc12)N1CCC(N2CCC[C@@H](C(=O)N3CCOCC3)C2)CC1`, `CN(C)CCNC(=O)c1cccn2c(=O)c3cc4ccccc4cc3nc12` [Bmh-21] is higher in cell viability: 92.5% for the first, over 100% for the second.

Going from `c1ccc2c(c1)SCc1c-2[nH]c2ccccc12` to `CCC(CC#N)OC(=O)N[C@@H](C)c1cccc(NC(=O)Nc2ccc(-c3cnco3)c(OC)c2)c1` (stereo in doubt) [AVN-944], the cell viability falls from 99.1% to 90.8%.

Work on `Oc1ncc(F)c(O)n1` [5-fluorouracil] yielded a cell viability of 96.6%.

Same assay, conditions: 1000 nM; 72 h

In order of rising cell viability:
1. CN(C)CCNC(=O)c1cccn2c(=O)c3cc4ccccc4cc3nc12 [Bmh-21]  24.3%
2. O=C(c1c2ccccc2cc2ccccc12)N1CCC(N2CCC[C@@H](C(=O)N3CCOCC3)C2)CC1  72.6%
3. CCC(CC#N)OC(=O)N[C@@H](C)c1cccc(NC(=O)Nc2ccc(-c3cnco3)c(OC)c2)c1 (stereo in doubt) [AVN-944]  86.2%
4. c1ccc2c(c1)SCc1c-2[nH]c2ccccc12  89.8%
5. Oc1ncc(F)c(O)n1 [5-fluorouracil]  96.7%

Same assay, conditions: 10000 nM; 72 h

In order of falling cell viability:
1. O=C(c1c2ccccc2cc2ccccc12)N1CCC(N2CCC[C@@H](C(=O)N3CCOCC3)C2)CC1  98%
2. Oc1ncc(F)c(O)n1 [5-fluorouracil]  95.7%
3. CCC(CC#N)OC(=O)N[C@@H](C)c1cccc(NC(=O)Nc2ccc(-c3cnco3)c(OC)c2)c1 (stereo in doubt) [AVN-944]  60.6%
4. CN(C)CCNC(=O)c1cccn2c(=O)c3cc4ccccc4cc3nc12 [Bmh-21]  1.02%
5. c1ccc2c(c1)SCc1c-2[nH]c2ccccc12  0.682%

Tested on: myeloid leukemia patient primary cells Pat.12
Assay: as above
Details: 1 nM; 72 h
How it was run: as §1

First: O=C(c1c2ccccc2cc2ccccc12)N1CCC(N2CCC[C@@H](C(=O)N3CCOCC3)C2)CC1
Second: c1ccc2c(c1)SCc1c-2[nH]c2ccccc12
The cell viability of the first is higher: over 100% for the first, 96.4% for the second.
